Source: US12642779B1, “Albuterol aerosol suspension formulation for oral inhalation with high amount of green propellant hydrofluoroolefin (HFO) and free of co-solvent” (Amphastar Pharmaceuticals, Inc., priority 2025, dated 2026)
Read-outs that look alike come from different tables or passages of the source.

Experiments:
[1] = cited from earlier work
[2] = Surfactant solubility in HFO-1234ze (E) propellant; assay type: physicochemical

Row | Compound | Liquid Density at 20° C. [1] | Vapor Pressure at 20° C. [1] | Viscosity at 20° C. [1] | Solubility of surfactant in HFO-1234ze (E) [2] | also measured
1 | FCC(F)(F)F [HFA-134a, 1,1,1,2-Tetrafluoroethane] | 1.21 g/mL | 83.0 psi | 0.20 cP |  | Water solubility ([1]; at 25° C.): 1100 at 25 °C ppm
2 | FC(C(F)(F)F)C(F)(F)F [HFA-227, 1,1,1,2,3,3,3-Heptafluoropropane] | 1.41 g/mL | 56.6 psi | 0.26 cP |  | Water solubility ([1]; at 25° C.): 610 at 25 °C ppm
3 | F/C=C/C(F)(F)F [HFO-1234ze(E), Trans-1,3,3,3-Tetrafluoropropene] | 1.19 g/mL | 46.4 psi | 0.19 cP |  | Water solubility ([1]; at 20° C.): 225 at 20 °C ppm
4 | polyethylene glycol 1000 [PEG 1000] |  |  |  | exhibited certain solubility in HFO-1234ze (E) and showed homogenous phase | 
5 | polyoxyethylene (20) sorbitan monolaurate [polysorbate 20] |  |  |  |  | Solubility of surfactant in HFO-1234ze (E) ([2]; in HFO-1234ze (E) propellant): exhibited certain solubility in HFO-1234ze (E) and showed homogenous phase
6 | polyoxyethylene (20) sorbitan monooleate [polysorbate 80] |  |  |  | exhibited certain solubility in HFO-1234ze (E) and showed homogenous phase | 
7 | polyvinylpyrrolidone K25 [PVP K25] |  |  |  | exhibited certain solubility in HFO-1234ze (E) and showed homogenous phase | 
8 | sorbitan trioleate [span 85] |  |  |  | exhibited certain solubility in HFO-1234ze (E) and showed homogenous phase | 
